Measured values as given in patent US10494364B2, “Cathepsin K inhibitors and application thereof” (SUNSHINE LAKE PHARMA CO., LTD., priority 2015, dated 2019).
pIC50: −log10 of the molar value.

Key:
Format in all cases: biochemical
human cathepsin S = human cathepsin S (Homo sapiens, UniProt P25774); assay: Assay of cathepsin S inhibitory activity in vitro; details: IC50 against human cathepsin S; substrate Z-VVR-AMC 20 μM; 25° C.; read-out: Cat-S
Experimental: Assay Method of Cathepsin S Inhibitory Activity In Vitro
0.25 ng/L was the final concentration of Cathepsin S in the enzyme reaction, and Z-VVR-AMC with the final concentration of 20 μM was added into the reaction system as substrate, in the reaction system the test compound and enzyme had been incubated at 25° C. for 15 min.

human cathepsin K = target: T1, human cathepsin K (Homo sapiens, UniProt P43235); assay: Assay of cathepsin K inhibitory activity in vitro; details: IC50 against human cathepsin K; substrate Z-Phe-Arg-AMC 10 μM; 25° C.; read-out: Cat-K
T1 sequence (P43235 115-329): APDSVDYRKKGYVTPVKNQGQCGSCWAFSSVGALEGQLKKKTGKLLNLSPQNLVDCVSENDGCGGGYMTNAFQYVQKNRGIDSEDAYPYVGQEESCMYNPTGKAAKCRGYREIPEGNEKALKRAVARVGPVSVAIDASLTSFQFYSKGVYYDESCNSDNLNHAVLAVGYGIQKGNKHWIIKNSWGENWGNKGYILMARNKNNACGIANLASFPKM
Experimental: Assay Method of Cathepsin K Inhibitory Activity In Vitro
Using 45000-fold diluted cathepsin K solution and 10 μM Z-Phe-Arg-AMC as substrate, the test compound and cathepsin K solution were incubated at 25° C. for 15 min in a 15 μL reaction system according to the optimized experimental condition.

human cathepsin B = human cathepsin B (Homo sapiens, UniProt P07858); assay: Assay of cathepsin B inhibitory activity in vitro; details: IC50 against human cathepsin B; substrate Z-Phe-Arg-AMC 10 μM; 25° C.; read-out: Cat-B
Experimental: Assay Method of Cathepsin B Inhibitory Activity In Vitro
0.01 ng/μL was the final concentration of Cathepsin B in the enzyme reaction, and Z-Phe-Arg-AMC with the final concentration of 10 μM was added into the reaction system as substrate, in the reaction system the test compound and enzyme had been incubated at 25° C. for 15 min.

human cathepsin L = human cathepsin L (Homo sapiens, UniProt P07711); assay: Assay of cathepsin L inhibitory activity in vitro; details: IC50 against human cathepsin L; substrate Z-Phe-Arg-AMC 10 μM; 25° C.; read-out: Cat-L
Experimental: Assay Method of Cathepsin L Inhibitory Activity In Vitro
0.01 ng/μL was the final concentration of Cathepsin L in the enzyme reaction, and Z-Phe-Arg-AMC with the final concentration of 10 μM was added into the reaction system as substrate, in the reaction system the test compound and enzyme had been incubated at 25° C. for 15 min.

Chain of human cathepsin L (P07711 114-333): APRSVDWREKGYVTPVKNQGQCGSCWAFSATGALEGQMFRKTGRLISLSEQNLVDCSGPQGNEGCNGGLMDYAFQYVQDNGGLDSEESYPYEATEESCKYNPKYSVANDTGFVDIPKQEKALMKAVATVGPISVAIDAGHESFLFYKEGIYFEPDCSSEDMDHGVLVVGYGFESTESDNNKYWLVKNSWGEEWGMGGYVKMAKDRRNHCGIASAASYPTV
Chain of human cathepsin S (P25774 115-331): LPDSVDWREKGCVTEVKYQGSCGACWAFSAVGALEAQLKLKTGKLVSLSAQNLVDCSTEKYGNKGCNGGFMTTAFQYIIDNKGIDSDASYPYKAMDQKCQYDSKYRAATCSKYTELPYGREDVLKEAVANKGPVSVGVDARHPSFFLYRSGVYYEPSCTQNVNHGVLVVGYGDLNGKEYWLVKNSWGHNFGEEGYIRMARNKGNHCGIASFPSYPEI

Question: Which results are given for `N#CC1(NC(=O)C2(NC(=O)c3cc4ccc(-c5ccc(S(=O)(=O)N6CCOCC6)cc5)cc4o3)CCC(F)(F)CC2)CC1` [Example 47, N-(1-((1-cyanocyclopropyl)carbamoyl)-4,4-difluorocyclohexyl)-6-(4-(morpholinosulfonyl)phenyl)benzofuran-2-carboxamide]?
Answer: pIC50 (human cathepsin S): < 5.00; pIC50 (human cathepsin K): 9.00; pIC50 (human cathepsin B): < 5.00; pIC50 (human cathepsin L): < 5.00

Question: How did the pIC50 (human cathepsin S) turn out when `N#CC1(NC(=O)C2(NC(=O)c3cc4ccc(-c5ccc(C(=O)N6CCOCC6)cc5)cc4o3)CCC(F)(F)CC2)CC1` [Example 92] was run?
Answer: 5.64

Question: What about the pIC50 (human cathepsin K) of the same compound?
Answer: 8.85

Question: And the pIC50 (human cathepsin B)?
Answer: 5.19

Question: What about the pIC50 (human cathepsin L) of the same compound?
Answer: < 5.00

Question: `N#CC1(NC(=O)C2(NC(=O)c3cc4ccc(-c5ccc(-n6cncn6)cc5)cc4o3)CCCCCC2)CC1` [Example 61] was tested. Which pIC50 (human cathepsin S) did it give?
Answer: < 5.00

Question: And the pIC50 (human cathepsin K)?
Answer: 8.90

Question: And the pIC50 (human cathepsin B)?
Answer: 6.37

Question: What about the pIC50 (human cathepsin L) of the same compound?
Answer: < 5.00

Question: `N#CC1(NC(=O)C2(NC(=O)c3cc4ccc(-c5csc(-n6cncn6)n5)cc4o3)CCC(F)(F)CC2)CC1` [Example 57, 6-(2-(1H-1,2,4-triazol-1-yl)thiazol-4-yl)-N-(1-((1-cyanocyclopropyl)carbamoyl)-4,4-difluorocyclohexyl)benzofuran-2-carboxamide] was tested. Which pIC50 (human cathepsin S) did it give?
Answer: 6.38

Question: And the pIC50 (human cathepsin K)?
Answer: 8.89

Question: And the pIC50 (human cathepsin B)?
Answer: < 5.00

Question: What about the pIC50 (human cathepsin L) of the same compound?
Answer: < 5.00

Question: What does the source list for `N#CC1(NC(=O)C2(NC(=O)c3cc4ccc(-c5ccc(C6(O)CCS(=O)(=O)CC6)cc5)cc4o3)CCCCC2)CC1` [Example 76]?
Answer: pIC50 (human cathepsin S): 6.47; pIC50 (human cathepsin K): 9.26; pIC50 (human cathepsin B): 6.92; pIC50 (human cathepsin L): < 5.00

Question: `CS(=O)(=O)c1ccc(-c2ccc3cc(C(=O)NC4(C(=O)NC5(C#N)CC5)CCCCCC4)oc3c2)cc1` [Example 81] was tested. Which pIC50 (human cathepsin S) did it give?
Answer: 5.80

Question: What about the pIC50 (human cathepsin K) of the same compound?
Answer: 8.87

Question: And the pIC50 (human cathepsin B)?
Answer: 5.62

Question: And the pIC50 (human cathepsin L)?
Answer: < 5.00

Question: How did the pIC50 (human cathepsin S) turn out when `N#CC1(NC(=O)C2(NC(=O)c3cc4ccc(-c5ccc(C(O)CO)cc5)cc4o3)CCC(F)(F)CC2)CC1` (stereo not drawn) [Example 6, N-(1-((1-cyanocyclopropyl)carbamoyl)-4,4-difluorocyclohexyl)-6-(4-(1,2-dihydroxyethyl)phenyl)benzofuran-2-carboxamide] was run?
Answer: 6.21

Question: What about the pIC50 (human cathepsin K) of the same compound?
Answer: 8.51

Question: What about the pIC50 (human cathepsin B) of the same compound?
Answer: 6.12

Question: And the pIC50 (human cathepsin L)?
Answer: < 5.00

Question: With `N#CC1(NC(=O)C2(NC(=O)c3cc4ccc(-c5ccc6ncoc6c5)cc4o3)CCC(F)(F)CC2)CC1` [Example 32, 6-(benzo[d]oxazol-6-yl)-N-(1-((1-cyanocyclopropyl)carbamoyl)-4,4-difluorocyclohexyl)benzofuran-2-carboxamide] as the compound, how does the pIC50 (human cathepsin S) read?
Answer: 5.48

Question: What about the pIC50 (human cathepsin K) of the same compound?
Answer: 8.72

Question: What about the pIC50 (human cathepsin B) of the same compound?
Answer: 5.12

Question: What about the pIC50 (human cathepsin L) of the same compound?
Answer: < 5.00

Question: With `N#CC1(NC(=O)C2(NC(=O)c3cc4ccc(-c5ccc(C6CCS(=O)(=O)CC6)cc5)cc4o3)CCC(F)(F)CC2)CC1` [Example 86] as the compound, how does the pIC50 (human cathepsin S) read?
Answer: 5.33

Question: What about the pIC50 (human cathepsin K) of the same compound?
Answer: 8.96

Question: And the pIC50 (human cathepsin B)?
Answer: 5.17

Question: What about the pIC50 (human cathepsin L) of the same compound?
Answer: < 5.00

Question: Which results are given for `COc1cc(-c2ccc3cc(C(=O)NC4(C(=O)NC5(C#N)CC5)CCC(F)(F)CC4)oc3c2)ccc1OCC(C)(C)O` [Example 44, N-(1-((1-cyanocyclopropyl)carbamoyl)-4,4-difluorocyclohexyl)-6-(4-(2-hydroxy-2-methylpropoxy)-3-methoxyphenyl)benzofuran-2-carboxamide]?
Answer: pIC50 (human cathepsin S): < 5.00; pIC50 (human cathepsin K): 8.63; pIC50 (human cathepsin B): 5.10; pIC50 (human cathepsin L): < 5.00

Question: Which results are given for `COc1ccc(-c2ccc3cc(C(=O)NC4(C(=O)NC5(C#N)CC5)CCC(F)(F)CC4)oc3c2)cc1OC` [Example 4, N-(1-((1-cyanocyclopropyl)carbamoyl)-4,4-difluorocyclohexyl)-6-(3,4-dimethoxyphenyl)benzofuran-2-carboxamide]?
Answer: pIC50 (human cathepsin S): < 5.00; pIC50 (human cathepsin K): 8.68; pIC50 (human cathepsin B): 5.60; pIC50 (human cathepsin L): < 5.00

Question: `COC1(c2ccc(-c3ccc4cc(C(=O)NC5(C(=O)NC6(C#N)CC6)CCCCC5)oc4c3)cc2)COC1` [Example 71] was tested. Which pIC50 (human cathepsin S) did it give?
Answer: < 5.00

Question: And the pIC50 (human cathepsin K)?
Answer: 8.68

Question: And the pIC50 (human cathepsin B)?
Answer: 6.54

Question: And the pIC50 (human cathepsin L)?
Answer: < 5.00

Question: Which results are given for `N#CC1(NC(=O)C2(NC(=O)c3cc4ccc(-c5csc(N6CCCC6=O)n5)cc4o3)CCCCC2)CC1` [Example 63]?
Answer: pIC50 (human cathepsin S): < 5.00; pIC50 (human cathepsin K): 8.80; pIC50 (human cathepsin B): 5.92; pIC50 (human cathepsin L): < 5.00

Question: How did the pIC50 (human cathepsin S) turn out when `N#CC1(NC(=O)C2(NC(=O)c3cc4ccc(-c5ccc(C(O)C(F)F)cc5)cc4o3)CCCCC2)CC1` (stereo not drawn) [Example 7, N-(1-((1-cyanocyclopropyl)carbamoyl)cyclohexyl)-6-(4-(2,2-difluoro-1-hydroxyethyl)phenyl)benzofuran-2-carboxamide] was run?
Answer: 5.68

Question: And the pIC50 (human cathepsin K)?
Answer: 9.21

Question: What about the pIC50 (human cathepsin B) of the same compound?
Answer: 6.99

Question: What about the pIC50 (human cathepsin L) of the same compound?
Answer: < 5.00

Question: Which results are given for `N#CC1(NC(=O)C2(NC(=O)c3cc4ccc(-c5ccc(-n6cn[nH]c6=O)cc5)cc4o3)CCC(F)(F)CC2)CC1` [Example 85]?
Answer: pIC50 (human cathepsin S): 5.82; pIC50 (human cathepsin K): 8.90; pIC50 (human cathepsin B): 5.66; pIC50 (human cathepsin L): < 5.00

Question: How did the pIC50 (human cathepsin S) turn out when `N#CC1(NC(=O)C2(NC(=O)c3cc4ccc(-c5csc(C6(O)COC6)n5)cc4o3)CCCCC2)CC1` [Example 78] was run?
Answer: 5.68

Question: And the pIC50 (human cathepsin K)?
Answer: 9.02

Question: What about the pIC50 (human cathepsin B) of the same compound?
Answer: 6.55

Question: What about the pIC50 (human cathepsin L) of the same compound?
Answer: ≤ 5.00

Question: `CS(=O)(=O)c1nc(-c2ccc3cc(C(=O)NC4(C(=O)NC5(C#N)CC5)CCCCC4)oc3c2)cs1` [Example 66] was tested. Which pIC50 (human cathepsin S) did it give?
Answer: 6.01

Question: And the pIC50 (human cathepsin K)?
Answer: 9.09

Question: What about the pIC50 (human cathepsin B) of the same compound?
Answer: 6.27

Question: And the pIC50 (human cathepsin L)?
Answer: < 5.00

Question: `COc1cc(-c2ccc3cc(C(=O)NC4(C(=O)NC5(C#N)CC5)CCC(F)(F)CC4)oc3c2)ccc1OC(F)F` [Example 94] was tested. Which pIC50 (human cathepsin S) did it give?
Answer: 5.19

Question: And the pIC50 (human cathepsin K)?
Answer: 8.62

Question: And the pIC50 (human cathepsin B)?
Answer: 5.40

Question: And the pIC50 (human cathepsin L)?
Answer: < 5.00

Question: Which results are given for `COc1cc(-c2ccc3cc(C(=O)NC4(C(=O)NC5(C#N)CC5)CCC(F)(F)CC4)oc3c2)ccc1C(=O)N1CCOCC1` [Example 40, N-(1-((1-cyanocyclopropyl)carbamoyl)-4,4-difluorocyclohexyl)-6-(3-methoxy-4-(morpholine-4-carbonyl)phenyl)benzofuran-2-carboxamide]?
Answer: pIC50 (human cathepsin S): < 5.00; pIC50 (human cathepsin K): 9.02; pIC50 (human cathepsin B): 5.65; pIC50 (human cathepsin L): < 5.00

Question: What does the source list for `CS(=O)(=O)c1ccc(-c2ccc3cc(C(=O)NC4(C(=O)NC5(C#N)CC5)CCCCC4)oc3c2)cc1` [Example 62]?
Answer: pIC50 (human cathepsin S): 5.40; pIC50 (human cathepsin K): 8.86; pIC50 (human cathepsin B): 6.06; pIC50 (human cathepsin L): < 5.00

Question: How did the pIC50 (human cathepsin S) turn out when `N#CC1(NC(=O)C2(NC(=O)c3cc4ccc(-c5ccc(C6(O)COC6)cc5)cc4o3)CCCCC2)CC1` [Example 72] was run?
Answer: < 5.00

Question: What about the pIC50 (human cathepsin K) of the same compound?
Answer: 9.30

Question: What about the pIC50 (human cathepsin B) of the same compound?
Answer: 6.14

Question: And the pIC50 (human cathepsin L)?
Answer: < 5.00

Question: What does the source list for `N#CC1(NC(=O)C2(NC(=O)c3cc4ccc(-c5ccc(C6(F)CCS(=O)(=O)CC6)cc5)cc4o3)CCCCC2)CC1` [Example 83]?
Answer: pIC50 (human cathepsin S): < 5.00; pIC50 (human cathepsin K): 8.66; pIC50 (human cathepsin B): 5.80; pIC50 (human cathepsin L): < 5.00

Question: How did the pIC50 (human cathepsin S) turn out when `CS(=O)(=O)c1ccc(-c2ccc3cc(C(=O)NC4(C(=O)NC5(C#N)CC5)CCCCC4)oc3c2)c(F)c1` [Example 5, N-(1-((1-cyanocyclopropyl)carbamoyl)cyclohexyl)-6-(2-fluoro-4-(methylsulfonyl)phenyl)benzofuran-2-carboxamide] was run?
Answer: 5.80

Question: And the pIC50 (human cathepsin K)?
Answer: 8.96

Question: What about the pIC50 (human cathepsin B) of the same compound?
Answer: 7.11

Question: What about the pIC50 (human cathepsin L) of the same compound?
Answer: < 5.00

Question: What does the source list for `N#CC1(NC(=O)C2(NC(=O)c3cc4ccc(-c5ccc(C(O)C(N)=O)cc5)cc4o3)CCC(F)(F)CC2)CC1` (stereo not drawn) [Example 90]?
Answer: pIC50 (human cathepsin S): 6.77; pIC50 (human cathepsin K): 8.82; pIC50 (human cathepsin B): 5.92; pIC50 (human cathepsin L): < 5.00
